Source: ChEMBL document CHEMBL1909046, “DrugMatrix in vitro pharmacology data”

Experiments:
[1] = target: T1, Neuropeptide Y receptor type 2 (Homo sapiens, UniProt P49146); format: cell membranes, Membrane; conditions: kan-ts; note: in other assays of this panel Not Active means under 50% inhibition at 10 µM
T1 sequence (P49146 whole entry): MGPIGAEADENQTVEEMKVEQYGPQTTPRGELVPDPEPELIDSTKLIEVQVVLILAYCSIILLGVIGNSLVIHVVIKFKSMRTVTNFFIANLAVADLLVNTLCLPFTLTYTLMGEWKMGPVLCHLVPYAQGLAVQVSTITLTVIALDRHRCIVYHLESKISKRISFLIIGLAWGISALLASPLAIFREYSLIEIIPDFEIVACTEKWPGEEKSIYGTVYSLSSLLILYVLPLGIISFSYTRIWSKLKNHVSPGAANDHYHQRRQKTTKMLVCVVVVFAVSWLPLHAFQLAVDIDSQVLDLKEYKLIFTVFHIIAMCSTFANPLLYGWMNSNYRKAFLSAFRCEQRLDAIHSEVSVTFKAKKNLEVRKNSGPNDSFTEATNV

[2] = target: T2, C-C chemokine receptor type 4 (Homo sapiens, UniProt P51679); format: cell membranes, Membrane; conditions: chem-1; note: in other assays of this panel Not Active means under 50% inhibition at 10 µM
T2 sequence (P51679 whole entry): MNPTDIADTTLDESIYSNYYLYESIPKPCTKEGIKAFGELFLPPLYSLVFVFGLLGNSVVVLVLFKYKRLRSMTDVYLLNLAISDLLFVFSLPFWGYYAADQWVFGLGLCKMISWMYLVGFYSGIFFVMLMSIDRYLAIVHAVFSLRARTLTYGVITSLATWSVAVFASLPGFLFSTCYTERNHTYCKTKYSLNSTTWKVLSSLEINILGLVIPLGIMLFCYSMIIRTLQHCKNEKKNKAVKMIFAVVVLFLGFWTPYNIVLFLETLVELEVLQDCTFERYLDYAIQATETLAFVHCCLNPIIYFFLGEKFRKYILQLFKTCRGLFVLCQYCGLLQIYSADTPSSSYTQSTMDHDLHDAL

[3] = target: T3, C-X-C chemokine receptor type 1 (Homo sapiens, UniProt P25024); note: in other assays of this panel Not Active means under 50% inhibition at 10 µM
T3 sequence (P25024 whole entry): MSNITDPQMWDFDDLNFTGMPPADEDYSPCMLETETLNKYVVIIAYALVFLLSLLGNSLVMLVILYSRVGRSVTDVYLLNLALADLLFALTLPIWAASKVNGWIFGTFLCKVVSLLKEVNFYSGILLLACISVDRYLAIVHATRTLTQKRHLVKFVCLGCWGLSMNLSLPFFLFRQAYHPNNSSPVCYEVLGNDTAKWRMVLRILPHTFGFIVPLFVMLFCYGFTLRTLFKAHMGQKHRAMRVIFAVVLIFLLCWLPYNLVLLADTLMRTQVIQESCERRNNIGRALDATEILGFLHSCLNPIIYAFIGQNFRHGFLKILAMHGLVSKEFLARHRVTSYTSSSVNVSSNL

[4] = DRUGMATRIX: Calcium Channel Type L, Benzothiazepine radioligand binding (ligand: [3H] Diltiazem); format: cell membranes, Rattus norvegicus, Wistar, Brain, Membrane; conditions: Not Active = under 50% inhibition at 10 µM
[5] = target: T4, Nitric oxide synthase, inducible (Mus musculus, UniProt P29477); set-up: species or system Escherichia coli;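 note: inhibition of iNOS enzyme activity measured with L-arginine as substrate; in other assays of this panel Not Active means under 50% inhibition at 10 µM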
T4 sequence (P29477 whole entry): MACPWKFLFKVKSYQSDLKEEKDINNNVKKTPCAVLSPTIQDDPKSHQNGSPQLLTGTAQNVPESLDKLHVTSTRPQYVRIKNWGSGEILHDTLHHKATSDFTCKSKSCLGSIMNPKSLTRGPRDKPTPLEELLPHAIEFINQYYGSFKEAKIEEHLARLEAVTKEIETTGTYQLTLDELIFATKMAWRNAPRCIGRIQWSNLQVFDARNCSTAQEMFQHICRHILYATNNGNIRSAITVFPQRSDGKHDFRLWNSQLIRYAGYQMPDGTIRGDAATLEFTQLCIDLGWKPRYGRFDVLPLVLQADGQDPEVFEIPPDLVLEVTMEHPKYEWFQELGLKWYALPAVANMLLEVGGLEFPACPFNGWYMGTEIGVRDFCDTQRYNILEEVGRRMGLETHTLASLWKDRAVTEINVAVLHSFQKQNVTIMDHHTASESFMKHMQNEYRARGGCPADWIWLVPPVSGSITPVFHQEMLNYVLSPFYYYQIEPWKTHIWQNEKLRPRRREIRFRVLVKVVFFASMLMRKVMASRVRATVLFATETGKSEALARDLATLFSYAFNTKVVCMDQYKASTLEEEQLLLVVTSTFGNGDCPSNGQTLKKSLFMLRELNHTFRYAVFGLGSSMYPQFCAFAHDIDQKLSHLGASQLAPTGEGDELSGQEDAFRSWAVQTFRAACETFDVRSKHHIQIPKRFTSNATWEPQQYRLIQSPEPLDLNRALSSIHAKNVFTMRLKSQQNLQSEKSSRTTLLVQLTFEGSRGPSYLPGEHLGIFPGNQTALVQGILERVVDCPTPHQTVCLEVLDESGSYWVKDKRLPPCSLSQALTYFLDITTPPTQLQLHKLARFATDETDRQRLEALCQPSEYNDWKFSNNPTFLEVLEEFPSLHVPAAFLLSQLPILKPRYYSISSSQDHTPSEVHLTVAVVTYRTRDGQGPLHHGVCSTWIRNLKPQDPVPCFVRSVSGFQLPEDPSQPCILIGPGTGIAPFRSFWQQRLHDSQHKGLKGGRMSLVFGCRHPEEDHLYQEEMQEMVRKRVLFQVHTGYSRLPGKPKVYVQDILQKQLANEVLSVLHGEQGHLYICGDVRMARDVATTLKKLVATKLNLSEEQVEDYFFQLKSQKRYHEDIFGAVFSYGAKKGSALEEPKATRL

[6] = target: 5-hydroxytryptamine receptor 6 (Homo sapiens, UniProt P50406); format: cell membranes, HeLa, Membrane; conditions: hela; note: in other assays of this panel Not Active means under 50% inhibition at 10 µM
[7] = target: Matrix metalloproteinase-9 (Homo sapiens, UniProt P14780); test: biochemical; format: cell-based
[8] = target: T5, Neutrophil elastase (Homo sapiens, UniProt P08246); format: tissue-based
T5 sequence (P08246 whole entry): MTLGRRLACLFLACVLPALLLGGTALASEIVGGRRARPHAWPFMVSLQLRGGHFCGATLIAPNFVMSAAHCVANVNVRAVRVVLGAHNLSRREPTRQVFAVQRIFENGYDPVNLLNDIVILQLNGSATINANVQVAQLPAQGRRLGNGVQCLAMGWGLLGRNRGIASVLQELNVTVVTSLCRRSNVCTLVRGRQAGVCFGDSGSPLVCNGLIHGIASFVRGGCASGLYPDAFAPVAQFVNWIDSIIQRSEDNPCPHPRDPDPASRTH

5-hydroxytryptamine receptor 6, sequence (P50406 whole entry): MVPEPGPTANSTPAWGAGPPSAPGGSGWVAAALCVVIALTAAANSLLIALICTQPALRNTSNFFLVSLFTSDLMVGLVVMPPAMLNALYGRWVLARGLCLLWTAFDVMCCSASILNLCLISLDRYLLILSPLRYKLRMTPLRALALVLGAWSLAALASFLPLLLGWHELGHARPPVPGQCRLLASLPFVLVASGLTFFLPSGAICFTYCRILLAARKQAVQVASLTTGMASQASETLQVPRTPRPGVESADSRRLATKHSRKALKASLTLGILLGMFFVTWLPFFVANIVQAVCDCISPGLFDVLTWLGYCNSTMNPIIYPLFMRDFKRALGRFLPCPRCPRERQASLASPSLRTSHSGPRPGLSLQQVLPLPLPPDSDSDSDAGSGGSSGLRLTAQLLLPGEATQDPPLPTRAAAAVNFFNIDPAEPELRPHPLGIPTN
Matrix metalloproteinase-9, sequence (P14780 whole entry): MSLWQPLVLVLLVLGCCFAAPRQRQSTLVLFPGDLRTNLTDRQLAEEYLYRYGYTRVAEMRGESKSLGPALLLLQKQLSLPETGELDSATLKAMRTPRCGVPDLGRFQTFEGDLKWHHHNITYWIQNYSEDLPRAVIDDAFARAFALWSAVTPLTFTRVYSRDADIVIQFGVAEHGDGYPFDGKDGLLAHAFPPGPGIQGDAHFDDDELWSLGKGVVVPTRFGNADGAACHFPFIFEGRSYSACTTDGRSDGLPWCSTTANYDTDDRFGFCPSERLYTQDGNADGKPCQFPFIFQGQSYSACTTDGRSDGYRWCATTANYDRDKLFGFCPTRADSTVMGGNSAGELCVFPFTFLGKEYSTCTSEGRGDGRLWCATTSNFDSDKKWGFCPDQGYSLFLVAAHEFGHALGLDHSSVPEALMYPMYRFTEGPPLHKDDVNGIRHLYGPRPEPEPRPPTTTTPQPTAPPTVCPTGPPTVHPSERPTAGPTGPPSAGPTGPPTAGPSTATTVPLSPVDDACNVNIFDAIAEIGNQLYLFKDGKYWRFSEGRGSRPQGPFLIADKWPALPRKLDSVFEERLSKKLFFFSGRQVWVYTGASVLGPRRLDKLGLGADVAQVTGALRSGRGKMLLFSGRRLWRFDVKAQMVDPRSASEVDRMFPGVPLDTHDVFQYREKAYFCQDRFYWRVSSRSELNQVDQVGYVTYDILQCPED

Oc1ccc(OCc2ccccc2)cc1 [MONOBENZONE]
Not Active: IC50 [1] | IC50 [2] | IC50 [3] | IC50 [4] | Ki [4] | IC50 [5] | IC50 [6] | IC50 [7] | IC50 [8]

O=C1CC2(CCCC2)CC(=O)N1CCCCN1CCN(c2ncccn2)CC1 [BUSPIRONE]
Not Active: IC50 [1] | IC50 [2] | IC50 [3] | IC50 [4] | Ki [4] | IC50 [5] | IC50 [6] | IC50 [7] | IC50 [8]

Nc1ccn([C@@H]2CS[C@H](CO)O2)c(=O)n1 [LAMIVUDINE]
Not Active: IC50 [1] | IC50 [2] | IC50 [3] | IC50 [4] | Ki [4] | IC50 [5] | IC50 [6] | IC50 [7] | IC50 [8]

COc1ccc2c(c1)c(CC(=O)O)c(C)n2C(=O)c1ccc(Cl)cc1 [INDOMETHACIN]
Not Active: IC50 [1] | IC50 [2] | IC50 [3] | IC50 [4] | Ki [4] | IC50 [5] | IC50 [6] | IC50 [7] | IC50 [8]

CC(C)[C@H]1CC[C@H](C(=O)N[C@H](Cc2ccccc2)C(=O)O)CC1 [NATEGLINIDE]
Not Active: IC50 [1] | IC50 [2] | IC50 [3] | IC50 [4] | Ki [4] | IC50 [5] | IC50 [6] | IC50 [7] | IC50 [8]

CCCC(=O)Nc1ccc(OCC(O)CNC(C)C)c(C(C)=O)c1 (configuration not stated) [ACEBUTOLOL]
Not Active: IC50 [1] | IC50 [2] | IC50 [3] | IC50 [4] | Ki [4] | IC50 [5] | IC50 [6] | IC50 [7] | IC50 [8]

C[C@]12CC[C@@H]3c4ccc(OC(=O)c5ccccc5)cc4CC[C@H]3[C@@H]1CC[C@@H]2O [ESTRADIOL BENZOATE]
Not Active: IC50 [1] | IC50 [2] | IC50 [3] | IC50 [4] | Ki [4] | IC50 [5] | IC50 [6] | IC50 [7] | IC50 [8]

CC1(C)O[C@@H]2C[C@H]3[C@@H]4C[C@H](F)C5=CC(=O)C=C[C@]5(C)[C@H]4[C@@H](O)C[C@]3(C)[C@]2(C(=O)CO)O1 [FLUNISOLIDE]
Not Active: IC50 [1] | IC50 [2] | IC50 [3] | IC50 [4] | Ki [4] | IC50 [5] | IC50 [6] | IC50 [7] | IC50 [8]

CC1=C(C(=O)O)N2C(=O)[C@@H](NC(=O)[C@H](N)c3ccccc3)[C@H]2SC1 [CEPHALEXIN ANHYDROUS]
Not Active: IC50 [1] | IC50 [2] | IC50 [3] | IC50 [4] | Ki [4] | IC50 [5] | IC50 [6] | IC50 [7] | IC50 [8]

COC(=O)C1=C(C)NC(C)=C(C(=O)OCC(C)C)C1c1ccccc1[N+](=O)[O-] (configuration not stated) [NISOLDIPINE]
2.21 nM: Ki ([4]; read-out: Ki)
2.48 nM: IC50 ([4]; read-out: IC50)
Not Active: IC50 [1] | IC50 [2] | IC50 [3] | IC50 [5] | IC50 [6] | IC50 [7] | IC50 [8]

CC(=O)Nc1ccc(O)cc1 [ACETAMINOPHEN]
Not Active: IC50 [1] | IC50 [2] | IC50 [3] | IC50 [4] | Ki [4] | IC50 [5] | IC50 [6] | IC50 [7] | IC50 [8]

CCc1c2c(nc3ccc(OC(=O)N4CCC(N5CCCCC5)CC4)cc13)-c1cc3c(c(=O)n1C2)COC(=O)[C@]3(O)CC [IRINOTECAN]
Not Active: IC50 [1] | IC50 [2] | IC50 [3] | IC50 [4] | Ki [4] | IC50 [5] | IC50 [6] | IC50 [7] | IC50 [8]

C[C@]12CC[C@@H]3c4ccc(O)cc4CC[C@H]3[C@@H]1CC[C@@H]2O [ESTRADIOL]
Not Active: IC50 [1] | IC50 [2] | IC50 [3] | IC50 [4] | Ki [4] | IC50 [5] | IC50 [6] | IC50 [7] | IC50 [8]

C#C[C@]1(OC(C)=O)CC[C@H]2[C@@H]3CCC4=CC(=O)CC[C@@H]4[C@H]3CC[C@@]21C [NORETHINDRONE ACETATE]
Not Active: IC50 [1] | IC50 [2] | IC50 [3] | IC50 [4] | Ki [4] | IC50 [5] | IC50 [6] | IC50 [7] | IC50 [8]

N=C(Nc1ccccc1)Nc1ccccc1
Not Active: IC50 [1] | IC50 [2] | IC50 [3] | IC50 [4] | Ki [4] | IC50 [5] | IC50 [6] | IC50 [7] | IC50 [8]

ClC(Cl)Cl [CHLOROFORM]
Not Active: IC50 [1] | IC50 [2] | IC50 [3] | IC50 [4] | Ki [4] | IC50 [5] | IC50 [6] | IC50 [7] | IC50 [8]

N=C(N)NC(=O)c1nc(Cl)c(N)nc1N [AMILORIDE]
Not Active: IC50 [1] | IC50 [2] | IC50 [3] | IC50 [4] | Ki [4] | IC50 [5] | IC50 [6] | IC50 [7] | IC50 [8]

CCN1CC(CCN2CCOCC2)C(c2ccccc2)(c2ccccc2)C1=O (configuration not stated) [DOXAPRAM]
Not Active: IC50 [1] | IC50 [2] | IC50 [3] | IC50 [4] | Ki [4] | IC50 [5] | IC50 [6] | IC50 [7] | IC50 [8]
